Data as given in US9745308B2, “Pyridazinone derivatives as phoshoinositide 3-kinases inhibitors” (CHIESI FARMACEUTICI S.p.A., priority 2014, dated 2017).

What was measured:
PI3Kβ = PI3Kβ (Homo sapiens, UniProt P42338); test: PI3K enzyme inhibitory activity in the cell free assay (ADP-Glo Kinase Assay), PI3K beta
PI3Kδ = PI3Kδ (Homo sapiens, UniProt O00329); test: PI3K enzyme inhibitory activity in the cell free assay (ADP-Glo Kinase Assay), PI3K delta
PI3Kγ = PI3Kγ (Homo sapiens, UniProt P48736); test: PI3K enzyme inhibitory activity in the cell free assay (ADP-Glo Kinase Assay), PI3K gamma
PI3Kα = PI3Kα (Homo sapiens, UniProt P42336); test: PI3K enzyme inhibitory activity in the cell free assay (ADP-Glo Kinase Assay), PI3K alpha
Chain of PI3Kα (P42336 whole entry): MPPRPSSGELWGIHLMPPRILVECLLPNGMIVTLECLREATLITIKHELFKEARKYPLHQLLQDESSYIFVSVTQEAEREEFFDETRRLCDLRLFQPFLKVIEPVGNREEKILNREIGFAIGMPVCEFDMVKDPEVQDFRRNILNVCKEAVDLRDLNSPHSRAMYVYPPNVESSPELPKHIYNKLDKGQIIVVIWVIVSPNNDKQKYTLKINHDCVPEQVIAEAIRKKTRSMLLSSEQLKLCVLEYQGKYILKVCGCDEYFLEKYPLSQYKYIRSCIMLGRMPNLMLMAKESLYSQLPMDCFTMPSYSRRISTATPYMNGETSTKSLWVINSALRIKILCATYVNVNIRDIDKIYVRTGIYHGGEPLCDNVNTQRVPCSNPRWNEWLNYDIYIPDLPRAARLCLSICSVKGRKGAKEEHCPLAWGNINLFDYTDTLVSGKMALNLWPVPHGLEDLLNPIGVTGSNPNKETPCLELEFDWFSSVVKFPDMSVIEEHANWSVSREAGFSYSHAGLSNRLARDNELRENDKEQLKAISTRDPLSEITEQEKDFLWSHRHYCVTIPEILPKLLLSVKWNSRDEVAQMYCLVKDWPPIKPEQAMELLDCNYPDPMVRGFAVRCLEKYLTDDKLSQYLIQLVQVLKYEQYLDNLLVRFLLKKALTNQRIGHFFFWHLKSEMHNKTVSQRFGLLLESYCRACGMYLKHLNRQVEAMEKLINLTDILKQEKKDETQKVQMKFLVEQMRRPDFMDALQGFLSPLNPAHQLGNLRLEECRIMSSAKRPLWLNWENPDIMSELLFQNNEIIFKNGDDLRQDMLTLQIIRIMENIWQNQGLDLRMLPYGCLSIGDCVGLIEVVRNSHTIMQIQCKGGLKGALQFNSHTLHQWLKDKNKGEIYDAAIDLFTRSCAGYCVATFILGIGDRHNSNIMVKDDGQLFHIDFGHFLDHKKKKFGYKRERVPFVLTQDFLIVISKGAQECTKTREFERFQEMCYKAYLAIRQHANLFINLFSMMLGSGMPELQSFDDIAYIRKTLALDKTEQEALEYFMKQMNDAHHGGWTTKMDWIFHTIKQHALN
Chain of PI3Kα (P27986 whole entry partner): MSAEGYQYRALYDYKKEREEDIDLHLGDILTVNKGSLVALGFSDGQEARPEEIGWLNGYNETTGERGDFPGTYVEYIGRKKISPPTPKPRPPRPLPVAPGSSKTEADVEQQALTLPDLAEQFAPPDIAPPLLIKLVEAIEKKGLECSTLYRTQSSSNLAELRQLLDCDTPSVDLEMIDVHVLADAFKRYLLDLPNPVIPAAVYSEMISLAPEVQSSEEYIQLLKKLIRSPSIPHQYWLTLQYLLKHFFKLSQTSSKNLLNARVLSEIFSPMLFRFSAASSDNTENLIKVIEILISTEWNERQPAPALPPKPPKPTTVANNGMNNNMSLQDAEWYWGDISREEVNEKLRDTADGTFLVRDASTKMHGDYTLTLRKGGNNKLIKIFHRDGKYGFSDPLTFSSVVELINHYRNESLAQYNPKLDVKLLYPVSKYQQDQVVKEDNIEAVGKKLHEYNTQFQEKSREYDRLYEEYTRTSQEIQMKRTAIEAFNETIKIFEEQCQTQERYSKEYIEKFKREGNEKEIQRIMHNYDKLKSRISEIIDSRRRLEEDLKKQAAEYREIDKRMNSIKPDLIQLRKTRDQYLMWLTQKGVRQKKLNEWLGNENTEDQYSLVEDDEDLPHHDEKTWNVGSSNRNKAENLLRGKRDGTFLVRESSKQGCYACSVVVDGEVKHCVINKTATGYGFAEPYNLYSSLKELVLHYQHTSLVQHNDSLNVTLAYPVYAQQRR

Chain of PI3Kδ (O00329 whole entry): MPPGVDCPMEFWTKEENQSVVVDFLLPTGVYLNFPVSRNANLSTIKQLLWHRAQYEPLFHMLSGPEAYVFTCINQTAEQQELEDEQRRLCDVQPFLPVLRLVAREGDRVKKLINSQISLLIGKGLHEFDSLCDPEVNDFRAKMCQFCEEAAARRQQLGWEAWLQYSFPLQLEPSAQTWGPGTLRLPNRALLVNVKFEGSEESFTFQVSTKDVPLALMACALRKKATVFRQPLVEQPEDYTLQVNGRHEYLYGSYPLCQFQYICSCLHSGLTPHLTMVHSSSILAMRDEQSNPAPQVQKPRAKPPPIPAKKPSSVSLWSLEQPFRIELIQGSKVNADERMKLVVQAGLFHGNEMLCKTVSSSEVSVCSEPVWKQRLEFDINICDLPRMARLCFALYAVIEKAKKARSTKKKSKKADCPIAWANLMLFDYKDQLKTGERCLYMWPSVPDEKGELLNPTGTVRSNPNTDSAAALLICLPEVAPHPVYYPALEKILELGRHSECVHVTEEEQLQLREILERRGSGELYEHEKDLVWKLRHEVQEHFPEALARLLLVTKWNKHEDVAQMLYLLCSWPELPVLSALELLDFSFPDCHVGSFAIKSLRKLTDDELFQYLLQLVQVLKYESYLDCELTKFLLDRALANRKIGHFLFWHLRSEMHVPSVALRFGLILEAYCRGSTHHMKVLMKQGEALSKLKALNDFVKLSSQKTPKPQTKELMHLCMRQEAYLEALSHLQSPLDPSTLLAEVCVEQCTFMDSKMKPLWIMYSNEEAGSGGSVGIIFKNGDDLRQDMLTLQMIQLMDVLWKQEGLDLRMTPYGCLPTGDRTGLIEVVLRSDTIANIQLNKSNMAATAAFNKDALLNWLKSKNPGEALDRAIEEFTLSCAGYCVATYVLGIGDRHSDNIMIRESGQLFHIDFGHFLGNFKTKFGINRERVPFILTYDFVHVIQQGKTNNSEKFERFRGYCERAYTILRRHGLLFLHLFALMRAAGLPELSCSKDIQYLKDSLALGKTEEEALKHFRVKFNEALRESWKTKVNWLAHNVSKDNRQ
Chain of PI3Kδ (P27986 whole entry partner): as the sequence (P27986 whole entry partner) above
Chain of PI3Kγ (P48736 whole entry): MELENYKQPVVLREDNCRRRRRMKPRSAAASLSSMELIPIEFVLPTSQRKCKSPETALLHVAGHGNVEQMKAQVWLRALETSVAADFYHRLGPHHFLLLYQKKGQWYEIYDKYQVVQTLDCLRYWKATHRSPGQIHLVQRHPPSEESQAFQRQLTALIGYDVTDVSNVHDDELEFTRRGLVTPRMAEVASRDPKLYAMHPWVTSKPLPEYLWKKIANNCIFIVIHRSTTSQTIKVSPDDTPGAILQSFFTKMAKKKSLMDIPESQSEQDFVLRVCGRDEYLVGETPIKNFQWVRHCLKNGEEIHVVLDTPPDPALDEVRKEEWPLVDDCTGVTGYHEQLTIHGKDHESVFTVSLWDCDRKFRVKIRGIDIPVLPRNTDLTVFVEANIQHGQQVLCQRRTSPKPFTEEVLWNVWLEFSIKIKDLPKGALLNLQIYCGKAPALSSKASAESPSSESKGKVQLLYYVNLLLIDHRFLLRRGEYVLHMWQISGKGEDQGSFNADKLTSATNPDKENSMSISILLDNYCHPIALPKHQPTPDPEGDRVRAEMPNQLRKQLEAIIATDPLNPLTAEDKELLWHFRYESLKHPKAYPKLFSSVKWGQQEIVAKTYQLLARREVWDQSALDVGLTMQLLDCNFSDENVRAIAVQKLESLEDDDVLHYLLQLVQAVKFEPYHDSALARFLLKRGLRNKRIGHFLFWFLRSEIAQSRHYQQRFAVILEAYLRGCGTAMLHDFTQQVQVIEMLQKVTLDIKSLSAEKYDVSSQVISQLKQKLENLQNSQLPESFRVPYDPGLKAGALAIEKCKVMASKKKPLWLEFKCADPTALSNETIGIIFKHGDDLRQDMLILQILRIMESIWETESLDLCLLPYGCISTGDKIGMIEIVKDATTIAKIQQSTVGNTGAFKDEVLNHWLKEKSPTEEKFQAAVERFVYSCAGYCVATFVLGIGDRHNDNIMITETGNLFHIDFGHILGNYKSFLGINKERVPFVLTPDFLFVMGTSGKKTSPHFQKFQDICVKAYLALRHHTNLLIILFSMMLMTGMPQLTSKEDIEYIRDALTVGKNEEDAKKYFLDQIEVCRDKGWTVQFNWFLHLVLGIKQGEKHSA
Chain of PI3Kβ (P42338 whole entry): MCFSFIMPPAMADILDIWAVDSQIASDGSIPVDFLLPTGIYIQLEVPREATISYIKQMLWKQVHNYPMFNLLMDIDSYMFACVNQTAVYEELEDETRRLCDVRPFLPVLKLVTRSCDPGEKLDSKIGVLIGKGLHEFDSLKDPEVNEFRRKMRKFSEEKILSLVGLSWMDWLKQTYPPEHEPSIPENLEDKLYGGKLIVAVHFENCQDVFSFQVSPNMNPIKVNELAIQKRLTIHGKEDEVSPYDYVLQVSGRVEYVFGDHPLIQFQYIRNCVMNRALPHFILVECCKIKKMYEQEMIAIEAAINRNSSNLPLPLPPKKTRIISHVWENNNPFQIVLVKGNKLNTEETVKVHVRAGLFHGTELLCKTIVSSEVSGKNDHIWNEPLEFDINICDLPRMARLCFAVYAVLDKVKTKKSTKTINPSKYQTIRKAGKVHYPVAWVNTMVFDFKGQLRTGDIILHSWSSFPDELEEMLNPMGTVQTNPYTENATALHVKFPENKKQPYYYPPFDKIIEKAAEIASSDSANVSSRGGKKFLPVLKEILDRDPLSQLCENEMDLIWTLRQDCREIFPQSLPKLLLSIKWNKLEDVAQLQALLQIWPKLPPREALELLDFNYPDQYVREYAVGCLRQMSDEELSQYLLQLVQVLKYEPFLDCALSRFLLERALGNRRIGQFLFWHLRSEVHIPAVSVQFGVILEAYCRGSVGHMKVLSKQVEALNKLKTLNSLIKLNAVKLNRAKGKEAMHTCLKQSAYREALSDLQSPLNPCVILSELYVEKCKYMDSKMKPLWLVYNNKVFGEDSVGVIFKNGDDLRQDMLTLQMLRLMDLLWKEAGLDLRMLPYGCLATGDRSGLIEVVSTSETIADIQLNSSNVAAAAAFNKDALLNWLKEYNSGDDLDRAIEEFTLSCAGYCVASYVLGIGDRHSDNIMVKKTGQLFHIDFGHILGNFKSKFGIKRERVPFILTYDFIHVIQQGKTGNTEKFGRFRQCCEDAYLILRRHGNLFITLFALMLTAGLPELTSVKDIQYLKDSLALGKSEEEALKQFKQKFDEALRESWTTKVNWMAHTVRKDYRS
Chain of PI3Kβ (P27986 whole entry partner): as the sequence (P27986 whole entry partner) above

Structure (SMILES) | IC50 (PI3Kβ) [nM] | IC50 (PI3Kδ) [nM] | IC50 (PI3Kγ) [nM] | IC50 (PI3Kα) [nM]
CC(c1cnn(Cc2ccccc2)c(=O)c1)n1nc(-c2cc(O)cc(F)c2)c2c(N)ncnc21 (centres unmarked) [Example 7, 5-{1-[4-amino-3-(3-fluoro-5-hydroxyphenyl)-1H-pyrazolo[3,4-d]pyrimidin-1-yl]ethyl}-2-benzyl-2,3-dihydropyridazin-3-one] | < 10 | < 10 | 10 to 1000 | 10 to 1000
CC(c1cnn(C)c(=O)c1)n1nc(-c2cc(O)cc(F)c2)c2c(N)ncnc21 (centres unmarked) [Example 9, 5-{1-[4-amino-3-(3-fluoro-5-hydroxyphenyl)-1H-pyrazolo[3,4-d]pyrimidin-1-yl]ethyl}-2-methyl-2,3-dihydropyridazin-3-one] | 10 to 1000 | < 10 | 10 to 1000 | 10 to 1000
CC(c1cnn(CCN2CCOCC2)c(=O)c1-c1ccccc1)n1nc(-c2cc(O)cc(F)c2)c2c(N)ncnc21 (centres unmarked) [Example 14, 5-{1-[4-amino-3-(3-fluoro-5-hydroxyphenyl)-1H-pyrazolo[3,4-d]pyrimidin-1-yl]ethyl}-2-[2-(morpholin-4-yl)ethyl]-4-phenyl-2,3-dihydropyridazin-3-one] | > 1000 | < 10 | > 1000 | > 1000
Nc1ncnc2c1c(-c1cc(O)cc(F)c1)nn2Cc1cnn(Cc2ccccc2)c(=O)c1 [Example 18, 5-{[4-amino-3-(3-fluoro-5-hydroxyphenyl)-1H-pyrazolo[3,4-d]pyrimidin-1-yl]methyl}-2-benzyl-2,3-dihydropyridazin-3-one] | 10 to 1000 | < 10 | 10 to 1000 | 10 to 1000
CC(Nc1ncnc(N)c1C#N)c1cc(=O)n(Cc2ccccc2)nc1-c1ccccc1 (centres unmarked) [Example 19, 4-amino-6-{[1-(1-benzyl-6-oxo-3-phenyl-1,6-dihydropyridazin-4-yl)ethyl]amino}pyrimidine-5-carbonitrile] | > 1000 | > 1000 | > 1000 | > 1000
CC(Nc1ncnc(N)c1C#N)c1cc(=O)n(C)nc1-c1ccccc1 (centres unmarked) [Example 20, 4-amino-6-(1-(1-methyl-6-oxo-3-phenyl-1,6-dihydropyridazin-4-yl)ethylamino)pyrimidine-5-carbonitrile] | > 1000 | 10 to 1000 | > 1000 | > 1000
CC(Nc1ncnc(N)c1C#N)c1cc(=O)n(C(C)C)nc1-c1ccccc1 (centres unmarked) [Example 21, 4-amino-6-({1-[6-oxo-3-phenyl-1-(propan-2-yl)-1,6-dihydropyridazin-4-yl]ethyl}amino)pyrimidine-5-carbonitrile] | > 1000 | > 1000 | > 1000 | > 1000
CC(Nc1ncnc(N)c1C#N)c1cc(=O)n(CC2CC2)nc1-c1ccccc1 (centres unmarked) [Example 22, 4-amino-6-({1-[1-(cyclopropylmethyl)-6-oxo-3-phenyl-1,6-dihydropyridazin-4-yl]ethyl}amino)pyrimidine-5-carbonitrile] | > 1000 | > 1000 | > 1000 | > 1000
CC(Nc1ncnc(N)c1C#N)c1cc(=O)n(-c2ccccc2)nc1-c1ccccc1 (centres unmarked) [Example 23, 4-amino-6-{[1-(6-oxo-1,3-diphenyl-1,6-dihydropyridazin-4-yl)ethyl]amino}pyrimidine-5-carbonitrile] | > 1000 | > 1000 | > 1000 | > 1000
CC(Nc1ncnc2[nH]cnc12)c1cc(=O)n(Cc2ccccc2)nc1-c1ccccc1 (centres unmarked) [Example 24, 2-benzyl-6-phenyl-5-{1-[(9H-purin-6-yl)amino]ethyl}-2,3-dihydropyridazin-3-one] | > 1000 | > 1000 | > 1000 | > 1000

Further lines, results first:

IC50 (PI3Kβ) [nM] | IC50 (PI3Kδ) [nM] | IC50 (PI3Kγ) [nM] | IC50 (PI3Kα) [nM] | Structure (SMILES)
10 to 1000 | 10 to 1000 | > 1000 | > 1000 | CC(c1cc(=O)n(Cc2ccccc2)nc1-c1ccccc1)n1nc(-c2cc(O)cc(F)c2)c2c(N)ncnc21 (centres unmarked) [Example 1, 5-{1-[4-amino-3-(3-fluoro-5-hydroxyphenyl)-1H-pyrazolo[3,4-d]pyrimidin-1-yl]ethyl}-2-benzyl-6-phenyl-2,3-dihydropyridazin-3-one]
10 to 1000 | 10 to 1000 | 10 to 1000 | > 1000 | CC(c1cc(=O)n(C)nc1-c1ccccc1)n1nc(-c2cc(O)cc(F)c2)c2c(N)ncnc21 (centres unmarked) [Example 2, 5-{1-[4-amino-3-(3-fluoro-5-hydroxyphenyl)-1H-pyrazolo[3,4-d]pyrimidin-1-yl]ethyl}-2-methyl-6-phenyl-2,3-dihydropyridazin-3-one]
10 to 1000 | 10 to 1000 | > 1000 | > 1000 | CC(C)n1nc(-c2ccccc2)c(C(C)n2nc(-c3cc(O)cc(F)c3)c3c(N)ncnc32)cc1=O (centres unmarked) [Example 3, 5-{1-[4-amino-3-(3-fluoro-5-hydroxyphenyl)-1H-pyrazolo[3,4-d]pyrimidin-1-yl]ethyl}-6-phenyl-2-(propan-2-yl)-2,3-dihydropyridazin-3-one]
10 to 1000 | 10 to 1000 | > 1000 | > 1000 | CC(c1cc(=O)n(CC2CC2)nc1-c1ccccc1)n1nc(-c2cc(O)cc(F)c2)c2c(N)ncnc21 (centres unmarked) [Example 4, 5-{1-[4-amino-3-(3-fluoro-5-hydroxyphenyl)-1H-pyrazolo[3,4-d]pyrimidin-1-yl]ethyl}-2-(cyclopropylmethyl)-6-phenyl-2,3-dihydropyridazin-3-one]
10 to 1000 | 10 to 1000 | 10 to 1000 | > 1000 | CC(c1cc(=O)n(-c2ccccc2)nc1-c1ccccc1)n1nc(-c2cc(O)cc(F)c2)c2c(N)ncnc21 (centres unmarked) [Example 5, 5-{1-[4-amino-3-(3-fluoro-5-hydroxyphenyl)-1H-pyrazolo[3,4-d]pyrimidin-1-yl]ethyl}-2,6-diphenyl-2,3-dihydropyridazin-3-one]
10 to 1000 | 10 to 1000 | > 1000 | > 1000 | CC(c1cc(=O)n(Cc2ccccn2)nc1-c1ccccc1)n1nc(-c2cc(O)cc(F)c2)c2c(N)ncnc21 (centres unmarked) [Example 6, 5-{1-[4-amino-3-(3-fluoro-5-hydroxyphenyl)-1H-pyrazolo[3,4-d]pyrimidin-1-yl]ethyl}-6-phenyl-2-(pyridin-2-ylmethyl)-2,3-dihydropyridazin-3-one]
< 10 | < 10 | 10 to 1000 | 10 to 1000 | CC(c1cnn(-c2ccccc2)c(=O)c1)n1nc(-c2cc(O)cc(F)c2)c2c(N)ncnc21 (centres unmarked) [Example 8, 5-{1-[4-amino-3-(3-fluoro-5-hydroxyphenyl)-1H-pyrazolo[3,4-d]pyrimidin-1-yl]ethyl}-2-phenyl-2,3-dihydropyridazin-3-one]
10 to 1000 | < 10 | 10 to 1000 | > 1000 | CC(c1cnn(C)c(=O)c1-c1ccccc1)n1nc(-c2cc(O)cc(F)c2)c2c(N)ncnc21 (centres unmarked) [Example 12, 5-{1-[4-amino-3-(3-fluoro-5-hydroxyphenyl)-1H-pyrazolo[3,4-d]pyrimidin-1-yl]ethyl}-2-methyl-4-phenyl-2,3-dihydropyridazin-3-one]
10 to 1000 | 10 to 1000 | 10 to 1000 | 10 to 1000 | CC(c1cnn(-c2ccccc2)c(=O)c1-c1ccccc1)n1nc(-c2cc(O)cc(F)c2)c2c(N)ncnc21 (centres unmarked) [Example 13, 5-{1-[4-amino-3-(3-fluoro-5-hydroxyphenyl)-1H-pyrazolo[3,4-d]pyrimidin-1-yl]ethyl}-2,4-diphenyl-2,3-dihydropyridazin-3-one]
10 to 1000 | < 10 | 10 to 1000 | > 1000 | CC(c1cnn(-c2cccnc2)c(=O)c1-c1ccccc1)n1nc(-c2cc(O)cc(F)c2)c2c(N)ncnc21 (centres unmarked) [Example 15, 5-{1-[4-amino-3-(3-fluoro-5-hydroxyphenyl)-1H-pyrazolo[3,4-d]pyrimidin-1-yl]ethyl}-4-phenyl-2-(pyridin-3-yl)-2,3-dihydropyridazin-3-one]
